The values below come from patent US20240247048A1 (EMORY UNIVERSITY, priority 2021, published 2024).

In test [1] the test system is orthotopic KPC-Luc tumors. The test can be described thus: orthotopic KPC-Luc pancreatic tumor model. It is filed as in vivo, mouse. The conditions noted are these: FIG. 21b. From the text:
KPC.Luc cells were orthotopically implanted in the tail of the pancreas of C57BL/6 mice and treated with ANT008 and/or anti-PD-1 with n=9, 10, 8 and 11 in scrambled+IgG, ANT008+IgG, scrambled+anti-PD-1 and ANT008+anti-PD-1, respectively. (FIG. 21A) Schematic showing orthotopic implantation of KPC.Luc cells and treatment strategy with ANT008 and/or anti-PD-1. (FIG. 21B) Waterfall plot showing % change in tumor flux on day 22 relative to day 7 prior to start of treatment. (FIG. 21C) Total flux as measured by IVIS bioluminescent imaging in the different treatment groups. Isoflurane was used for anesthesia for bioluminescent imaging. Median flux represented as dashed gray line (----). Cross symbol (+) represents mice that were euthanized before day 25 due to ulceration of the tumor and circle symbol (∘) represent mouse that were imaged on day 26 via MRI imaging shown in FIG. 30. (FIG. 21D) Bar graph showing weight of pancreas on day 25 when the mice were euthanized. ‘Star’ shaped (⋆) data points indicate tumor free mice and dotted horizontal line (----) represents the average weight of healthy pancreas from naïve mice. […] P values in FIG. 21D were calculated using student ANOVA followed by Dunnett's post hoc test (comparing each treatment group with Scram+IgG). […]

The subject of another test is human T cells. The test can be described thus: activation of healthy-donor human T cells (anti-CD3), marker expression by flow cytometry. The format is cell-based. Particulars: 24 h post activation, 3 uM, vs scrambled peptide; FIG. 17d. Here is the method: Mean value from ‘Activated’ group shown with dotted line (---) for comparison. Responses from same healthy donors are shown with same color dots. Error bars are computed as the standard error of the mean (SEM) from 6 healthy donor samples.
This study adopted an ex-vivo system using human T cells isolated from healthy donors to screen for novel VIP-R antagonist peptides. Human T cells were cultured over 6 or 24 hours with activation in the presence or absence of peptides and were assessed for percent CD69 surface expression by flow cytometry to measure the state of T cell activation. The activity of the peptides was determined by percent increase in CD69 expression relative to no peptide control. […] We also observed that amongst the donors, most were classified as average responders, with measured value for CD69 expression within the error bars while two others had measured values outside the error bars, one sample reflecting a super-responder (purple dots) and one sample reflecting a slow-responder (green dots) (FIGS. 10A and 10B). […]
Human T cell activation and expansion. […] Cells were counted using Trypan blue dye and phenotyped via flow cytometry on day 9. […]

Turning to KPRRPYTDNYTRLRKQMAVKKYLNLILN [ANT008], in test [1], the “mice in which tumors regressed, number of mice of group” value is recorded as 4/10. Moreover, the “mice in which tumors regressed” value in test [1] (tumor flux day 22 relative to day 7) is given as 40%. As for KPRRPYTSDYTRLRKQMAVKKYLNLILN [ANT308], the “CD69 expression in CD4 and CD8 human T cells” value in the test on human T cells is recorded as “significantly increased”.
